Results as given in patent US20090023186A1, “USE OF VALPROIC ACID FOR ENHANCING PRODUCTION OF RECOMBINANT PROTEINS IN MAMMALIAN CELLS” (EXCELLGENE SA, priority 2007, published 2009).

Tested on: HEK293E cells
Test: Multiple VPA additions, IgG batch titer by ELISA (Example 3)
Type: cell-based, Human
Settings: day 10 after transfection
Experimental: 10 million suspension-adapted HEK293E cells were resuspended in 0.5 ml of Ex-Cell 293 HEK 293 serum-free medium with 4 mmol/l L-glutamine (Cat. No. 14571C-[…]; Lot No. 6A0093; SAFC Biosciences, Lenexa, Kans., USA, “Ex-Cell” medium; note: “Ex-Cell” medium-as used herein-refers to a medium comprising 4 mmol/l L-glutamine) in a 50-ml filter tube each (TPP AG, Trasadingen, Switzerland; Cat. No. 87050, Lot 20050174). In a separate set, 10 million suspension-adapted CHO DG44 cells were resuspended in 0.5 ml of ProCHO5 serum-free medium with 4 mmol/[…] hypoxanthine and 0.194 g/l thymidine (BioWhittaker (Lonza), Belgium; Cat. No. BE12-[…]; Lot No. 7 MB0040; “ProCHO5” medium; note: “ProCHO5” medium-as used herein-refers to a medium comprising 4 mmol/[…] hypoxanthine and 0.194 g/l thymidine) in a 50-ml filter tube each (TPP AG, Trasadingen, Switzerland; Cat. No. 87050, Lot 20050174). Then 12.5 μg plasmid DNA at a concentration of 1 μg/μl was added in each tube with the following composition 50% (6.25 μg) p-LC (SEQ ID NO: 1) 50% (6.25 μg) p-HC (SEQ ID NO: 3). Plasmid p-LC comprises the genetic information for the production of the light chain of an IgG antibody, plasmid p-HC comprises the genetic information for the production of the heavy chain of an IgG antibody. The particular vector constructs used in the present invention can also be obtained from the inventors. The inventors can be contacted via e-mail at […]. […] In short, Goat anti-human kappa light chain IgG (Biosource) was used for coating the ELISA-plates, and with AP-conjugated goat anti-human gamma chain IgG (Biosource) the synthesized IgG1 was detected. […] Absorption was measured at 405 nm against 490 nm using a microplate reader (SPECTRAmaxTM340; Molecular Devices, Palo Alto, Calif., USA).

CCCC(CCC)C(=O)O [VPA, valproic acid] was tested, and the Batch titer (4 mmol/l VPA at day 0) was 193 mg/L, the “batch titers, direct addition versus slowly increasing concentration” value was “statistically not different” and the Batch titer (escalating dosage, 1 to 4 mmol/l in 1 mmol/l increments every other day) was 182 mg/L.
